Consider seven compounds from ChEMBL document CHEMBL1201862, “PubChem BioAssay data set” (2004).

Some test systems named below: A498; HCT-15; Hs-578T; IGROV-1; LOX IMVI; M14; MCF7; MDA-MB-231; MDA-N; MOLT-4; OVCAR-3; OVCAR-5; RPMI-8226; SF-295; SK-MEL-28; SK-OV-3; SN12C; SR; TK-10; UACC-257.
What all share (assay): NCI-60 cell line screen, 48 h

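Cells were grown in 96-well plates and exposed to each compound for 48 hours at five concentrations; endpoints were interpolated linearly between bracketing concentrations, or set to the highest concentration if not reached. GI50 is the concentration that inhibits growth by half.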 Active and inactive are the calls of the source. Rule as the data show it: active = GI50 up to about 1.1 µM and inactive = higher.

`COC(=O)C1(Cc2ccc3c(c2)CCC3)Cc2ccc3c(c2C1=O)CCC3` (stereo not given): the GI50 in the experiment on A498 was 5.61 µM (inactive); in the experiment on HCT-15, 3.66 µM; with Hs-578T it was 3.26 µM (inactive); with IGROV-1 it was 5.46 µM (inactive); with LOX IMVI, 5.87 µM (inactive); in the experiment with M14 it was 4.26 µM (inactive). The GI50 with MCF7 was 3.43 µM (inactive); with MDA-MB-231 it was 5.78 µM (inactive); with MDA-N it was 2.01 µM (inactive); in the experiment with MOLT-4, 4.06 µM (inactive); with OVCAR-3, 4.26 µM (inactive); in the experiment on OVCAR-5, 21.1 µM (inactive). Also, the GI50 in the experiment with RPMI-8226 was 5.4 µM (inactive); in the experiment with SF-295, 3.72 µM (inactive); with SK-MEL-28 it was 8.22 µM (inactive); with SK-OV-3, 20.4 µM (inactive); with SN12C, 12.2 µM (inactive); in the experiment on SR, 2.55 µM (inactive). The GI50 with TK-10 is 11.8 µM (inactive); in the experiment with UACC-257 it was 8.65 µM (inactive).
Consider `OCC(Cn1cncn1)(c1ccc(F)cc1F)n1cncn1` (stereo not given), for which the GI50 in the experiment on A498 was 38.5 µM (inactive); in the experiment with HCT-15, greater than 100 µM; in the experiment on Hs-578T it was > 100 µM (inactive); in the experiment with IGROV-1 it was > 100 µM (inactive); in the experiment with LOX IMVI, > 100 µM (inactive); in the experiment with M14, > 100 µM (inactive). The GI50 with MCF7, in the experiment on MDA-MB-231, in the experiment with MDA-N, with MOLT-4, with OVCAR-3 and with OVCAR-5 was > 100 µM (inactive) in each case. For the same compound, the GI50 in the experiment on RPMI-8226, in the experiment on SF-295, with SK-MEL-28, with SK-OV-3, in the experiment with SN12C and with SR was > 100 µM (inactive) each time. For the same compound, the GI50 with TK-10 and in the experiment with UACC-257 was > 100 µM (inactive) throughout.
In the case of `COc1ccc(C(=O)/C=C/c2ccc(O)c(O)c2F)c(OC)c1`, the GI50 was 8.51 µM (inactive) in the experiment on A498; 0.34 µM in the experiment with HCT-15; 6.44 µM (inactive) in the experiment on Hs-578T; 9.98 µM (inactive) with IGROV-1; 5.61 µM (inactive) with LOX IMVI; 7.71 µM (inactive) in the experiment on M14. The GI50 in the experiment with MCF7 is 0.279 µM (active); with MDA-MB-231, 9.82 µM (inactive); in the experiment with MDA-N it was 3.23 µM (inactive); with MOLT-4, 1.12 µM (inactive); in the experiment with OVCAR-3, 1.05 µM (active); in the experiment with OVCAR-5, 10.7 µM (inactive). Moreover, the GI50 was 1.85 µM (inactive) with RPMI-8226; 5.41 µM (inactive) in the experiment with SF-295; 8.11 µM (inactive) in the experiment with SK-MEL-28; 9.27 µM (inactive) in the experiment with SK-OV-3; 3.89 µM (inactive) in the experiment with SN12C; 0.893 µM (active) in the experiment on SR. Besides, the GI50 with TK-10 is 9.18 µM (inactive); in the experiment with UACC-257, 9.08 µM (inactive).
For `c1ccc2c(c1)NC1(N3CCCCC3)CCCCC21` (stereo not given), the GI50 is 32.8 µM (inactive) in the experiment on A498; 44 µM in the experiment on HCT-15; 47.9 µM (inactive) with Hs-578T; 28.2 µM (inactive) in the experiment on IGROV-1; 38.4 µM (inactive) in the experiment on LOX IMVI; 55.3 µM (inactive) with M14. Also, the GI50 in the experiment with MCF7 was 36.1 µM (inactive); in the experiment with MDA-MB-231, 34.2 µM (inactive); with MDA-N, 28.1 µM (inactive); in the experiment on MOLT-4, 25.9 µM (inactive); in the experiment on OVCAR-3 it was 41.7 µM (inactive); in the experiment with OVCAR-5, 35.2 µM (inactive). In addition, the GI50 with RPMI-8226 is 39.1 µM (inactive); in the experiment on SF-295, 45.4 µM (inactive); in the experiment with SK-MEL-28, 49.3 µM (inactive); in the experiment on SK-OV-3 it was > 100 µM (inactive); in the experiment on SN12C, 35.4 µM (inactive); in the experiment on SR it was 32 µM (inactive). Also, the GI50 was > 100 µM (inactive) with TK-10 and 47.3 µM (inactive) in the experiment with UACC-257.
Turning to `Cc1cn2c(/C=C3/C(=O)Nc4ccccc43)c(-c3ccccc3)nc2s1`, the GI50 with A498 is 72.3 µM (inactive); in the experiment with HCT-15, greater than 100 µM; in the experiment with Hs-578T, 27.7 µM (inactive); in the experiment on IGROV-1, 40.5 µM (inactive); with LOX IMVI it was 91 µM (inactive); in the experiment with M14, > 100 µM (inactive). In addition, the GI50 was 29.4 µM (inactive) in the experiment on MCF7; 18.7 µM (inactive) with MDA-MB-231; > 100 µM (inactive) in the experiment with MDA-N; > 100 µM (inactive) in the experiment on MOLT-4; 85.3 µM (inactive) in the experiment with OVCAR-3; > 100 µM (inactive) in the experiment with OVCAR-5. Besides, the GI50 with RPMI-8226 was > 100 µM (inactive); in the experiment on SF-295 it was 37.5 µM (inactive); in the experiment with SK-MEL-28, > 100 µM (inactive); with SK-OV-3 it was 30.1 µM (inactive); in the experiment on SN12C it was 93.1 µM (inactive); in the experiment on SR it was > 100 µM (inactive). Also, the GI50 is 22.4 µM (inactive) in the experiment with TK-10 and > 100 µM (inactive) with UACC-257.
`COc1ccc(C[C@H]2NC[C@H](OC(C)=O)[C@H]2OC(C)=O)cc1`: the GI50 in the experiment on A498 was 0.302 µM (active); with HCT-15 it was 0.144 µM; in the experiment with Hs-578T, 0.135 µM (active); in the experiment with IGROV-1, 0.15 µM (active); in the experiment on LOX IMVI, 0.067 µM (active); in the experiment with M14 it was 0.0951 µM (active). For the same compound, the GI50 in the experiment on MCF7 is 0.14 µM (active); in the experiment with MDA-MB-231, 0.308 µM (active); in the experiment with MDA-N it was 0.133 µM (active); with MOLT-4 it was 0.205 µM (active); with OVCAR-3 it was 0.233 µM (active); in the experiment with OVCAR-5, 0.122 µM (active). In addition, the GI50 was 0.275 µM (active) in the experiment with RPMI-8226; 0.183 µM (active) with SF-295; 0.143 µM (active) in the experiment on SK-MEL-28; 0.138 µM (active) in the experiment with SK-OV-3; 0.124 µM (active) with SN12C; 0.177 µM (active) in the experiment on SR. Moreover, the GI50 is 0.31 µM (active) with TK-10 and 0.21 µM (active) in the experiment on UACC-257.
As for `c1cc2cc(Cc3ccc4[nH]ccc4c3)ccc2[nH]1`, the GI50 with A498 was 16.6 µM (inactive); in the experiment with HCT-15 it was 13.9 µM; in the experiment on Hs-578T it was 19.9 µM (inactive); in the experiment with IGROV-1, 15.9 µM (inactive); with LOX IMVI, 27.8 µM (inactive); in the experiment on M14, 17.1 µM (inactive). For the same compound, the GI50 in the experiment on MCF7 was 14.1 µM (inactive); with MDA-MB-231 it was 16.5 µM (inactive); in the experiment on MDA-N, 12.9 µM (inactive); in the experiment on MOLT-4, 10.7 µM (inactive); in the experiment on OVCAR-3, 12.8 µM (inactive); with OVCAR-5, 19.5 µM (inactive). In addition, the GI50 in the experiment with RPMI-8226 was > 10 µM (inactive); in the experiment with SF-295, 31 µM (inactive); in the experiment on SK-MEL-28 it was 26.4 µM (inactive); in the experiment with SK-OV-3, 19.5 µM (inactive); in the experiment on SN12C, 17.4 µM (inactive); in the experiment on SR it was 5.78 µM (inactive). The GI50 is 22.1 µM (inactive) in the experiment on TK-10 and 21.9 µM (inactive) with UACC-257.
